In patent US12391660B2, “Heteroaromatic acetamide derivative, and preparation and use thereof” (Hangzhou Westan Pharmaceutical Technology Co., Ltd, priority 2019, dated 2025):

Assays:
[1] = biological target: T1, human TRPA1 (Homo sapiens (Human), UniProt O75762); test: FLIPR assay of inhibitory activity on human TRPA1 (calcium ion flux fluorescence); format: cell-based; details: HEK293 cells stably expressing human TRPA1
How it was run: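 Tetracycline-induced (0.1 μg/ml) HEK293 cells stably expressing human TRPA1, loaded with 5 μM Fluo-4 AM for 1 h at 37° C. Compounds added in 1:5 dilutions from 30 μM (9 points, duplicate), then 3 mM CaCl2 after 10 min; fluorescence peak at 538 nm gave IC50.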

[2] = biological target: T1, human TRPA1; test: Inhibitory activity on human TRPA1 by conventional patch clamp assay; format: cell-based; details: for inhibition at 5 µM: read-out: TRPA1 % Inhibition rate (5 μM); for IC50: HEK293 human TRPA1, 100 μM cinnamaldehyde
Description: 2. Inhibitory Activity on Human TRPA1 by Conventional Patch Clamp Assay
In order to compare the influences of different measuring methods on the inhibitory activity of compounds, a conventional patch clamp method was used to further measure the inhibitory activity of compounds 1, 11, 31, 50, and 78 on TRPA1. The principle and procedures of the conventional patch clamp assay could be found in the literature report of Chen et al [Chen et al. Pain 2011, 152(5):1165-72].
Evaluation of TRPA1 inhibitory activity of compounds was conducted using the HEK293 recombinant cell strain (Creative Biogene, NY) stably expressing human TRPA1. Cells were cultured in a DMEM/F12 (3:1, Thermo Fisher Scientific) medium (containing 5% calf serum, 2 mM glutamine and 20 mM HEPES) in an incubator at 37° C. and air humidity containing 5% CO2.
During the experiment, the adherent cells were placed in a recording room under the inverted microscope. All experiments were performed at room temperature. Each cell itself was used as a control thereof.
Test compounds at a final concentration were all prepared on the testing day and then dissolved in the extracellular fluid. The extracellular fluid was (mM): NaCl, 137; KCl, 4; CaCl2, 1.8; MgCl2, 1; HEPES, 10; glucose 10; pH 7.4 (NaOH titration). All the solutions of the test compounds and control compounds contained 0.3% DMSO.
The compounds were all perfused with a perfusion system by virtue of their own gravity. At least two cells were tested for each concentration of the compound. After the current became stable, the variation in magnitude of the current before and after the compound was used to calculate the blocking effect of the compound. 100 μM cinnamaldehyde was used as the positive control.
The cells were transferred to the perfusion tank and perfused with extracellular fluid. The intracellular fluid was: 130 mM K-aspartate; 5 mM MgCl2; 5 mM EGTA; 10 mM
HEPES; pH 7.2 (KOH titration). The intracellular fluid was stored in a small amount in a −80 degree refrigerator in batches, and thawed on the day of the experiment. The electrode was pulled with PC-10 (Narishige, Japan). Whole-cell patch clamp recording was adopted and noise was filtered at one-fifth of the sampling frequency.
The cells were clamped at 20 mV, and then depolarized to 80 mV with a square wave of 500 milliseconds to obtain the TRPA1 current (see FIG. 1).
This procedure was repeated every 3 seconds. Cells were patched in a normal extracellular fluid, current A was obtained via voltage procedure testing, and then perfusion was conducted with an extracellular fluid added with 100 μM cinnamaldehyde to activate TRPA1 current to obtain current B. After the current stabilized, elution was conducted with normal extracellular fluid and perfusion was conducted with an extracellular fluid added with 100 μM cinnamaldehyde and a compound at various concentrations to obtain current C. Finally, blocking rate of the compound was obtained according to […], see FIG. 2.
Data collection and analysis was conducted using pCLAMP 10 (Molecular Devices, Union City, CA). Current stabilization meant that the variation in the current with time was within a limited range. The magnitude of the current after stabilization was used to reflect the effect of the compound in this process.

T1 sequence (O75762 whole entry): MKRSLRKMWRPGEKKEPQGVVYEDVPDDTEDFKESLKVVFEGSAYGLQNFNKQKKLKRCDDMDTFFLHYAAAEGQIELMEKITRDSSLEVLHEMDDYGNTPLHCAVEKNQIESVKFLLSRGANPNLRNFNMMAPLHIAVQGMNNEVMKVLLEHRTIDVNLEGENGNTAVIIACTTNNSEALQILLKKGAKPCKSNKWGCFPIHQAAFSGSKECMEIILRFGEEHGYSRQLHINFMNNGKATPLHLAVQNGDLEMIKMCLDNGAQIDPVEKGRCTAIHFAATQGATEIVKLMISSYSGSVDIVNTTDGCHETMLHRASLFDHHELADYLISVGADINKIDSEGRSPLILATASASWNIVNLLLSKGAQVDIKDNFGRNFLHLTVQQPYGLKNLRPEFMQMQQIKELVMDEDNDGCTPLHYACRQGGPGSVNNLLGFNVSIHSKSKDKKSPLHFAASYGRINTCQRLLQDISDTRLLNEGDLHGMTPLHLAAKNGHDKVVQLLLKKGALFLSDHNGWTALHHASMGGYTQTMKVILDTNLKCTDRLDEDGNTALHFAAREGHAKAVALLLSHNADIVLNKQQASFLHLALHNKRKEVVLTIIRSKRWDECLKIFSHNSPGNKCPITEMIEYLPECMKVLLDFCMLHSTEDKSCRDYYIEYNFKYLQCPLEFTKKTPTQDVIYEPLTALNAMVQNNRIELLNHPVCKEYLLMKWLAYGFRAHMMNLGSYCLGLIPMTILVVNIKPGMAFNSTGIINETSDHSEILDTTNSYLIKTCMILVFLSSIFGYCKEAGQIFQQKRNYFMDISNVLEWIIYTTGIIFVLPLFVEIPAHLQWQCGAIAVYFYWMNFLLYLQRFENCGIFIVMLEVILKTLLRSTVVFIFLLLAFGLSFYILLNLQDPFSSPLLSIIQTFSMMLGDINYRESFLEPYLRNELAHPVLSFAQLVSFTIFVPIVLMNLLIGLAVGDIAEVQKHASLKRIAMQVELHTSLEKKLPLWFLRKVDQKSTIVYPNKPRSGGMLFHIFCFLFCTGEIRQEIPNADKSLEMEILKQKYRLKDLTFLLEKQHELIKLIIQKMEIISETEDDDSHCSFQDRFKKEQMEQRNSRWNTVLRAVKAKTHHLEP

Compound	IC50 [1] [nM]	inhibition at 5 µM [2] [%]	IC50 [2] [nM]
N#Cc1ccc(NC2(C(=O)N3CCN(c4ccc(C(F)(F)F)cc4)CC3)CCCC2)cc1 [Compound 1, 4-((1-(4-(4-(trifluoromethyl)phenyl)piperazine-1-carbonyl)cyclopentyl)amino)benzonitrile]	40	99	56
CC(C)(C)C1CCN(C(=O)C2(Nc3ccc(C#N)cc3)CCCC2)CC1 [Compound 31, 4-((1-(4-(tert-butyl)piperidine-1-carbonyl)cyclopentyl)amino)benzonitrile]	87	117	98
